Measurements from ChEMBL document CHEMBL4346657, “Anticancer activity, dual prooxidant/antioxidant effect and apoptosis induction profile of new bichalcophene-5-carboxamidines” (Eur J Med Chem, 2019).

Experiments:
[1] = test system: TK-10; assay: Antiproliferative activity against human TK10 cells assessed as growth inhibition after 48 hrs by sulforhodamine B assay; type: functional; conditions: TK-10, 48 h
[2] = test system: MDA-MB-231; assay: Antiproliferative activity against human MDA-MB-231/ATCC cells assessed as growth inhibition after 48 hrs by sulforhodamine B assay; type: functional; conditions: MDA-MB-231, 48 h
[3] = test system: MCF7; assay: Antiproliferative activity against human MCF7 cells assessed as growth inhibition after 48 hrs by sulforhodamine B assay; type: functional; conditions: MCF7, 48 h
[4] = test system: SN12C; assay: Antiproliferative activity against human SN12C cells assessed as growth inhibition after 48 hrs by sulforhodamine B assay; type: functional
[5] = test system: RXF 393; assay: Antiproliferative activity against human RXF393 cells assessed as growth inhibition after 48 hrs by sulforhodamine B assay; type: functional; conditions: RXF 393, 48 h
[6] = test system: CAKI-1; assay: Antiproliferative activity against human CAKI-1 cells assessed as growth inhibition after 48 hrs by sulforhodamine B assay; type: functional; conditions: CAKI-1, 48 h
[7] = test system: A498; assay: Antiproliferative activity against human A498 cells assessed as growth inhibition after 48 hrs by sulforhodamine B assay; type: functional; conditions: A498, 48 h
[8] = test system: OVCAR-8; assay: Antiproliferative activity against human OVCAR8 cells assessed as growth inhibition after 48 hrs by sulforhodamine B assay; type: functional; conditions: OVCAR-8, 48 h
[9] = test system: OVCAR-5; assay: Antiproliferative activity against human OVCAR5 cells assessed as growth inhibition after 48 hrs by sulforhodamine B assay; type: functional; conditions: OVCAR-5, 48 h
[10] = test system: OVCAR-4; assay: Antiproliferative activity against human OVCAR4 cells assessed as growth inhibition after 48 hrs by sulforhodamine B assay; type: functional; conditions: OVCAR-4, 48 h
[11] = test system: UACC-62; assay: Antiproliferative activity against human UACC62 cells assessed as growth inhibition after 48 hrs by sulforhodamine B assay; type: functional; conditions: UACC-62, 48 h
[12] = test system: UACC-257; assay: Antiproliferative activity against human UACC257 cells assessed as growth inhibition after 48 hrs by sulforhodamine B assay; type: functional; conditions: UACC-257, 48 h
[13] = test system: SK-MEL-28; assay: Antiproliferative activity against human SK-MEL-28 cells assessed as growth inhibition after 48 hrs by sulforhodamine B assay; type: functional; conditions: SK-MEL-28, 48 h
[14] = test system: M14; assay: Antiproliferative activity against human M14 cells assessed as growth inhibition after 48 hrs by sulforhodamine B assay; type: functional; conditions: M14, 48 h
[15] = test system: SF-539; assay: Antiproliferative activity against human SF539 cells assessed as growth inhibition after 48 hrs by sulforhodamine B assay; type: functional; conditions: SF-539, 48 h
[16] = test system: SW-620; assay: Antiproliferative activity against human SW620 cells assessed as growth inhibition after 48 hrs by sulforhodamine B assay; type: functional; conditions: SW-620, 48 h
[17] = test system: HCT-116; assay: Antiproliferative activity against human HCT116 cells assessed as growth inhibition after 48 hrs by sulforhodamine B assay; type: functional; conditions: HCT-116, 48 h
[18] = test system: COLO 205; assay: Antiproliferative activity against human COLO205 cells assessed as growth inhibition after 48 hrs by sulforhodamine B assay; type: functional; conditions: COLO 205, 48 h
[19] = test system: NCI-H522; assay: Antiproliferative activity against human NCI-H522 cells assessed as growth inhibition after 48 hrs by sulforhodamine B assay; type: functional; conditions: NCI-H522, 48 h
[20] = test system: NCI-H23; assay: Antiproliferative activity against human NCI-H23 cells assessed as growth inhibition after 48 hrs by sulforhodamine B assay; type: functional; conditions: NCI-H23, 48 h
[21] = test system: NCI-H226; assay: Antiproliferative activity against human NCI-H226 cells assessed as growth inhibition after 48 hrs by sulforhodamine B assay; type: functional; conditions: NCI-H226, 48 h
[22] = test system: HOP-62; assay: Antiproliferative activity against human HOP62 cells assessed as growth inhibition after 48 hrs by sulforhodamine B assay; type: functional; conditions: HOP-62, 48 h
[23] = test system: SR; assay: Antiproliferative activity against human SR cells assessed as growth inhibition after 48 hrs by sulforhodamine B assay; type: functional
[24] = test system: RPMI-8226; assay: Antiproliferative activity against human RPMI8226 cells assessed as growth inhibition after 48 hrs by sulforhodamine B assay; type: functional; conditions: RPMI-8226, 48 h
[25] = test system: K562; assay: Antiproliferative activity against human K562 cells assessed as growth inhibition after 48 hrs by sulforhodamine B assay; type: functional, cell-based; conditions: K562, 48 h, read-out: IC50
[26] = test system: BT-549; assay: Antiproliferative activity against human BT549 cells assessed as growth inhibition after 48 hrs by sulforhodamine B assay; type: functional; conditions: BT-549, 48 h
[27] = test system: T47D; assay: Antiproliferative activity against human T47D cells assessed as growth inhibition after 48 hrs by sulforhodamine B assay; type: functional
[28] = test system: MDA-MB-468; assay: Antiproliferative activity against human MDA-MB-468 cells assessed as growth inhibition after 48 hrs by sulforhodamine B assay; type: functional; conditions: MDA-MB-468, 48 h
[29] = Haemolytic activity in human erythrocytes assessed as induction of hemolysis at 10 mM after 30 mins relative to H202; type: cell-based, Erythrocyte; conditions: read-out: Activity
[30] = Haemolytic activity in human erythrocytes assessed as induction of hemolysis at 5 mM after 30 mins relative to H202; type: cell-based, Erythrocyte; conditions: read-out: Activity
[31] = Haemolytic activity in human erythrocytes assessed as induction of hemolysis at 2.5 mM after 30 mins relative to H202; type: cell-based, Erythrocyte; conditions: erythrocytes, read-out: Activity
[32] = Haemolytic activity in human erythrocytes assessed as induction of hemolysis at 1.25 mM after 30 mins relative to H202; type: cell-based, Erythrocyte; conditions: erythrocytes, read-out: Activity
[33] = Antioxidant activity assessed as DPPH radical scavenging activity incubated in dark for 30 mins by spectrophotometric method relative to control; type: functional; design: concentration or dose not given beside the values
[34] = Antioxidant activity assessed as ABTS radical scavenging activity by spectrophotometric analysis relative to control; type: functional; design: concentration or dose not given beside the values; conditions: dose or concentration not given here
[35] = Antioxidant activity assessed as ABTS radical scavenging activity by spectrophotometric method relative to ascorbic acid; type: functional
[36] = test system: HCT-116; assay: Induction of apoptosis in human HCT116 cells assessed as increase in caspase 3 mRNA expression at 100 nM after 6 hrs hrs by SYBR green dye-based qRT-PCR analysis relative to control; type: functional
[37] = test system: HCT-116; assay: Induction of apoptosis in human HCT116 cells assessed as increase in p53 mRNA expression at 100 nM after 6 hrs hrs by SYBR green dye-based qRT-PCR analysis relative to control; type: functional

N=C(N)c1ccc(-c2ccc(-c3ccc(Cl)cc3)o2)o1
GI50 [1]: 2.07 µM | GI50 [2]: 2.01 µM | GI50 [3]: 1.27 µM | GI50 [4]: 1.9 µM | GI50 [5]: 1.82 µM | GI50 [6]: 1.69 µM | GI50 [7]: 2.12 µM | GI50 [8]: 2.02 µM | GI50 [9]: 1.82 µM | GI50 [10]: 1.8 µM | GI50 [11]: 1.89 µM | GI50 [12]: 1.99 µM | GI50 [13]: 1.83 µM | GI50 [14]: 1.85 µM | GI50 [15]: 1.71 µM | GI50 [16]: 1.7 µM | GI50 [17]: 1.9 µM | GI50 [18]: 1.83 µM | GI50 [19]: 1.73 µM | GI50 [20]: 1.69 µM | GI50 [21]: 2.19 µM | GI50 [22]: 1.65 µM | GI50 [23]: 1.63 µM | GI50 [24]: 2.12 µM | IC50 [25]: 1.37 µM | GI50 [26]: 5.92 µM | GI50 [27]: 1.71 µM | GI50 [28]: 2.19 µM | hemolysis at 0.5 h, 10000 µM [29]: 97.3% | hemolysis at 0.5 h, 5000 µM [30]: 70.7% | hemolysis at 0.5 h, 2500 µM [31]: 41.3% | hemolysis at 0.5 h, 1250 µM [32]: 14% | inhibition [33]: 17.5% | inhibition [34]: 20.4% | fold change (FC) [35]: 0.2 | fold change (FC) [36]: 3.55 | fold change (FC) [37]: 1.09
